# Experimental data taken from PubChem BioAssay AID602464 (Sanford-Burnham Center for Chemical Genomics, 2012).
# pIC50: −log10 of the molar value. Active and inactive are the calls of the source. Rule as the data show it: active = IC50 below about 20 µM; inactive = the rest.
# Tested on: Gli-responsive luciferase reporter cells, SUFU pathway antagonism
# Experiment: blockers of Gli reporter signaling – cell-based, luciferase luminescence, uHTS hits, dose response (AID 602464)
Structure (SMILES),pIC50,IC50
CCCCCCn1c(=O)c(C(=O)Nc2cnccn2)c(O)c2ccccc21,5.04,–
CCCCNc1c(-c2ccc(OC)c(Sc3ccc(OC)cc3)c2)nc2ccccn12,5.20,–
CCCCSc1nc2sc3c(c2c(=O)n1-c1ccc(C)cc1)CCN(C)C3,4.75,–
COc1ccc(NS(=O)(=O)c2ccc(N3CCCCC3)c(N)c2)cc1,5.29,–
CC(C)(C)OC(=O)N1CCC(c2cc(-c3cccs3)n[nH]2)CC1,–,> 20 µM (inactive)
Brc1ccc(-c2c[n+]3c(n2-c2ccccc2)SCC3)cc1,5.16,–
Cc1cc(/C=N/n2cnnc2)c(C)n1-c1ccc(OCc2ccccc2F)cc1,5.37,–
O=C(NCCNc1ccnc2cc(Cl)ccc12)c1ccccc1F,5.09,–
O=c1c2ccccc2sc2c(CO)ccc(NCCN3CCCCC3)c12,–,> 20 µM (inactive)
CCn1c(=NC(=O)CS(=O)(=O)c2ccccc2)sc2cccc(OC)c21,5.40,–
COc1cc(C(=O)NC2CCN(C)CC2)ccc1Nc1ncc2c(n1)N(C1CCCCC1)CCC(=O)N2C,5.80,–
O=C(N[C@@H]1C/C=C\C[C@@H](CC(=O)N(CCO)Cc2ccccc2)C(=O)N[C@@H](c2ccccc2)COC1=O)OCC1c2ccccc2-c2ccccc21,4.92,–
O=C(Nc1nc(-c2cccs2)cs1)c1cccc(S(=O)(=O)N2CCCCCC2)c1,5.64,–
Cc1cc(C)nc(SCC(=O)Nc2ccc(N3CCOCC3)c(Cl)c2)n1,5.45,–
COc1ccc(-c2nn(-c3ccccc3)cc2/C=N/NC(=O)c2ccc(Br)o2)cc1,5.27,–
O=C(Cn1cnc2ccccc21)Nc1cccc(S(=O)(=O)N2CCCC2)c1,5.04,–
CCN(CC)C(=O)c1ccc(S(=O)(=O)N2CCC(c3nc4ccccc4s3)CC2)cc1,5.05,–
CCOC(=O)c1c(NC(=O)C(=O)N/N=C/c2ccccc2O)sc2c1CCCCC2,5.36,–
O=[N+]([O-])c1ccc(N2CCN(C(=S)NCc3ccc(Cl)cc3)CC2)cc1,4.92,–
CC(C)Cn1c(N)c(C(=O)COC(=O)C2Cc3ccccc3CN2S(C)(=O)=O)c(=O)n(C)c1=O (configuration not stated),–,> 20 µM (inactive)
O=C(N[C@@H]1C/C=C\C[C@@H](CC(=O)N(CCO)Cc2ccccc2)C(=O)NC[C@H](c2ccccc2)OC1=O)OCC1c2ccccc2-c2ccccc21,5.08,–
CN(Cc1ccc(OC(F)F)cc1)C(=O)c1cccc(S(=O)(=O)N2CCN(Cc3ccccc3)CC2)c1,5.16,–
CCCCc1ccc(NC(=O)C(=O)NCCN2CCN(Cc3ccc([N+](=O)[O-])cc3)CC2)cc1,5.08,–
CCc1cc(C(=O)NC2CCCN(Cc3ccccc3F)C2)n(C)n1 (configuration not stated),4.88,–
CCN(CC)S(=O)(=O)c1ccc(S(=O)(=O)N2CCCC(C(=O)NC3CC3)C2)cc1 (configuration not stated),5.12,–
COc1ccc(C(C(=O)NC2CCCCC2)N(C(=O)CCl)c2ccc(Cl)cc2)cc1 (configuration not stated),5.35,–

Structure (SMILES),pIC50,IC50
Cc1cc(Nc2ccc([N+](=O)[O-])cc2)c2ccccc2n1,–,> 20 µM (inactive)
C=C(C)CSc1nc2sc3c(c2c(=O)n1C1CCCCC1)CCN(C)C3,5.06,–
Cc1nnsc1C(=O)NC1CCCc2c1cnn2-c1ccc(F)cc1F (configuration not stated),5.09,–
Cc1ccc(O)c(NC(=O)COc2cc(C)ccc2C)c1,5.48,–
CC(=O)c1c(C)[nH]c(C(=O)OCC(=O)Nc2cccc(S(=O)(=O)N3CCCC3)c2)c1C,5.19,–
CC(=O)c1cccc(NS(=O)(=O)c2ccc(-c3cnc(C4CC4)o3)cc2)c1,5.09,–
O=C(Nc1ccccc1)C1=C[C@H](C2CCCCC2)C[C@H](OCCCCO)O1,6.18,–
c1ccc(-c2c[n+]3c(n2-c2ccccc2)SCC3)cc1,5.01,–
CC1CN(S(=O)(=O)c2ccc(C(=O)Nc3nc(-c4cc5ccccc5o4)cs3)cc2)CC(C)O1 (configuration not stated),5.90,–
Cc1sc2ncnc(NCC(C)(C)N3CCOCC3)c2c1C,5.41,–
N=c1c(-c2nc3ccccc3[nH]2)cc(C(=O)c2ccco2)nn1-c1ccccc1,–,> 20 µM (inactive)
COc1ccc(CNCC(O)COc2cccc3c2OC(C)(C)C3)cc1 (configuration not stated),5.22,–
CCCCCCCNC1=CC(=O)CC(c2ccccc2)C1 (configuration not stated),5.09,–
O=C(N/N=C/c1cc2ccccc2nc1Cl)[C@H]1C[C@@H]1c1ccccc1,4.79,–
COc1ccc(NS(=O)(=O)c2ccc(NC(C)=O)cc2)cc1OC,5.10,–
CC(C)(C)c1ccc(C(=O)NC(=S)Nc2ccc(N3CCOCC3)cc2)cc1,5.04,–
FC(F)Oc1ccc(-c2c[n+]3c(n2-c2ccccc2)CCCCC3)cc1,5.13,–
CCOC(=O)c1c(NC(=O)COc2cccc3c2CCN(C)C3=O)sc2c1CCC2,5.07,–
CC(=O)c1cn(CCOc2ccccc2C)c2ccccc12,5.07,–
Cc1c(C(C)C)c(=O)n(-c2ccc(S(=O)(=O)NC3CCCCC3)cc2)n1C,5.38,–
CC(C)(C)c1ccc(CN2C3=NCCCN3c3ccccc32)cc1,5.42,–
C=CCNc1nc2c(c(=O)n(C)c(=O)n2C)n1Cc1ccc(F)cc1,5.21,–
COc1ccc(C(=O)C[n+]2cc(-c3ccc(OC)cc3)n3c2CCCC3)cc1,5.19,–
CCCCOC(=O)c1[nH]c2c(c1C)C(=O)CC(c1cc(OC)c(OC)c(OC)c1)C2 (configuration not stated),5.65,–
Cc1ccc(S(=O)(=O)N2CCN(C(=O)c3ccc(S(=O)(=O)N4CCCC4)cc3)CC2)cc1,–,> 20 µM (inactive)
FC(F)Oc1ccc(-n2cc(-c3ccccc3)[n+]3c2CCCCC3)cc1,5.09,–

Structure (SMILES),pIC50,IC50
O=C1N/C(=C\c2ccc(O)cc2)C(O)=C1C=NCc1ccccc1,5.33,–
CC1Sc2n(c3ccccc3[n+]2C)N=C1c1ccccc1 (configuration not stated),5.33,–
O=C(Cn1cc(C(=O)C2CC2)c2ccccc21)Nc1ccccc1Cl,4.95,–
O=C(Nc1ccccc1)C1=C[C@@H](C2CCCCC2)C[C@@H](OCCCCO)O1,5.71,–
COc1ccc(NC(=S)N2CCC(Cc3ccccc3)CC2)cc1,4.78,–
CN1/C(=C\C=Nc2ccccc2)C(C)(C)c2ccccc21,5.22,–
C(#Cc1ccccc1)C[N+]1(CC#Cc2cccc3ccccc23)CCCC1,5.44,–
CCOc1ccc(-c2cc(C)[n+](CCO)c(-c3ccc(OCC)cc3)c2)cc1,4.83,–
Nc1nc2ccccc2n1/N=C/c1ccc([N+](=O)[O-])s1,5.19,–
CNc1ccccc1C(C)(C)c1cc(-c2cccc(Br)c2)no1,5.69,–
Cc1ccc(-c2csc(NC(=O)c3c(C)noc3C)n2)s1,5.26,–
COc1ccc(-n2c(-c3ccc(Cl)cc3)c[n+]3c2CCc2ccccc2-3)cc1,5.75,–
CCC(C)NS(=O)(=O)c1ccc(S(=O)(=O)N2CCCC3(CCCCC3)C2)cc1 (configuration not stated),–,> 20 µM (inactive)
Cc1cc(-c2ccccc2)cc(-c2ccccc2)[n+]1C,5.35,–
O=c1c2ccccc2nc2n1C(CSCc1cccc(C(F)(F)F)c1)CS2 (configuration not stated),5.41,–
O=C(N[C@H]1C/C=C\C[C@@H](CC(=O)N(CCO)Cc2ccccc2)C(=O)NC[C@H](c2ccccc2)OC1=O)OCC1c2ccccc2-c2ccccc21,5.14,–
C=CCn1c(O)c(N=NC(=S)Nc2cccc(C)c2)c2ccccc21,5.07,–
Cc1cc(C)nc(/N=C(\N)Nc2ccccc2-c2ccccc2)n1,4.89,–
CCCCCCC[N+](CC)(CC)CCCCc1ccc(Cl)cc1,5.25,–
COc1ccccc1-c1c(-c2ccc(O)cc2O)n[nH]c1C(F)(F)F,5.31,–
CN(CCOc1ccc(Cl)cc1)C(=O)c1cccc(S(=O)(=O)N2CCN(c3ccc(F)cc3)CC2)c1,5.25,–
O=C(c1cc2nc(-c3ccc(F)cc3)cc(C(F)(F)F)n2n1)N1CCCCC1c1cccnc1 (configuration not stated),–,> 20 µM (inactive)
COc1ccccc1CCNC(=O)c1cc(-c2ccncc2)nc2ccc(Br)cc12,–,> 20 µM (inactive)
O=C(N[C@H]1C/C=C\C[C@@H](CC(=O)N(CCO)Cc2ccccc2)C(=O)N[C@H](Cc2c[nH]c3ccccc23)COC1=O)OCC1c2ccccc2-c2ccccc21,4.98,–
COc1ccc(CC(=O)Nc2cccc(S(=O)(=O)N3CCCCCC3)c2)cc1OC,5.10,–
Clc1ccc(-c2cn(-c3ccc(Cl)cc3)c3[n+]2CCCCC3)cc1,5.19,–

Structure (SMILES),pIC50,IC50
CCC(C)NC(=O)CCC(=O)OC1O[C@H]2OC3(C)CC[C@H]4[C@H](C)CCC(C1C)C24OO3 (some centres not stated),6.38,–
COc1ccccc1CCNC(=O)C(=O)NCCC1CCCCN1S(=O)(=O)c1cccs1 (configuration not stated),5.06,–
Cc1cccnc1CN1CCN(C(=O)c2cc(COc3ccc4ncccc4c3)on2)CC1,5.29,–
Brc1ccc(-[n+]2c(-c3ccccc3)cc(-c3ccccc3)cc2-c2ccccc2)cc1,5.32,–
Cc1cc(C)c(C)c(S(=O)(=O)N2CCN(c3ncnc4ccccc34)CC2)c1C,5.34,–
CC(C)CC(NC(=O)CCCNC(=O)CCC(=O)OC1O[C@H]2OC3(C)CC[C@H]4[C@H](C)CCC(C1C)C24OO3)C(=O)O (some centres not stated),6.21,–
O=C(Cn1c(-c2ccccc2)c[n+]2ccsc12)c1ccc(Br)cc1,–,> 20 µM (inactive)
CC(C)(C)C1CCC(OC(=O)C[N+]2(C)CCCCC2)CC1 (configuration not stated),–,> 20 µM (inactive)
O=C(Cn1cc(C(=O)c2ccco2)c2ccccc21)Nc1ccccc1F,5.37,–
CCOC(=O)N1CCN(C(=O)c2cc(COc3ccc4ncccc4c3)on2)CC1,5.17,–
Cc1sc2ncnc(NCC(O)c3ccc([N+](=O)[O-])cc3)c2c1C (configuration not stated),5.32,–
Cc1ccc(C(=O)N2CCN3C(=O)c4ccccc4C23c2ccc(Cl)cc2)cc1 (configuration not stated),5.31,–
Cc1cccc(C)c1NC(=S)N(CCN1CCCCCC1)Cc1ccco1,–,> 20 µM (inactive)
O=C(NC1CCCC1)c1cc(COc2ccc3ncccc3c2)on1,5.29,–
COc1ccc(-c2c[n+](CC(=O)c3ccccc3)c3n2CCCCC3)cc1,4.85,–
COc1ccccc1C(=O)NC(=S)/C=C1/N(C)c2ccccc2C1(C)C,5.07,–
CC(=O)c1c(C)[nH]c(C(=O)OCC(=O)Nc2ccc(C)cc2[N+](=O)[O-])c1C,6.27,–
O=C(Nc1ccc(C(F)(F)F)cc1)C1CCN(S(=O)(=O)c2ccc(N3CCCC3=O)cc2)CC1,5.49,–
CCOc1ccc(-n2c(O)c(/C=N/Nc3nc(C)cc(C)n3)c3ccccc3c2=O)cc1,5.15,–
COC(=O)C1=C(c2cc3ccccc3o2)C[C@@H]2CC[C@H]1N2C(=O)N1CCC(C)CC1,4.79,–
Cc1ccc(C)c(N2CC(O)(c3cccs3)[N+]3=C2CCCC3)c1 (configuration not stated),4.98,–
Cc1cc(NC(=O)CSc2nc3c([nH]c4ccccc43)c(=O)n2-c2ccccc2F)no1,4.86,–
C[n+]1c2n(c3ccccc31)N=C(c1ccc(-c3ccccc3)cc1)CS2,5.88,–
Cc1ccc(NC(=O)/C=C/c2ccco2)cc1S(=O)(=O)N1CCCCCC1,5.67,–
